From US20240417374A1, “SMALL MOLECULE ANTAGONIST TO PACAP RECEPTOR AND USES THEREOF” (The University of Vermont and State Agricultural College, priority 2021, published 2024)
Several values for one entry are separate records, joined by “and”; a condition that tells them apart may be missing. Equal values may be shown once.

Experiments:
PAC1 receptor [1] = target: T1, PAC1 receptor (Homo sapiens, UniProt P41586); parameters: expressed in transfected cells; conditions: earlier work, WO/2020/168068; cited from earlier work
T1 sequence (P41586 21-468): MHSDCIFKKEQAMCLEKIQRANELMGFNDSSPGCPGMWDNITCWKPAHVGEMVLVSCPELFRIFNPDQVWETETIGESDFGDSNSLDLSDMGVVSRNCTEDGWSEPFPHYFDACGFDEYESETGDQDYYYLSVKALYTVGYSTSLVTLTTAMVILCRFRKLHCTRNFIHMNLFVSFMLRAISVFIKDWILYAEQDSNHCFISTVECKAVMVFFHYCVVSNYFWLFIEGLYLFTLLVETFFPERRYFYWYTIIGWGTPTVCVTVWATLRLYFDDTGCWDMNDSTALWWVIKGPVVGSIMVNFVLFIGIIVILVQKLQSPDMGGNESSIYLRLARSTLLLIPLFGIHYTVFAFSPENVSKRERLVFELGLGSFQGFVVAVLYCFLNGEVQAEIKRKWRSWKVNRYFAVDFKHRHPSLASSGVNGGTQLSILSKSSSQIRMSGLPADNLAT

PAC1 receptor [2] = target: T1, PAC1 receptor; parameters: expressed in transfected cells; conditions: earlier work, WO/2020/168068; cited from earlier work; remark: listed apart in the source
PAC1 receptor [3] = target: T1, PAC1 receptor; parameters: expressed in transfected cells; conditions: earlier work, WO/2020/168068; cited from earlier work; remark: listed apart in the source
[4] = tested on: PACAP-induced anxiety-related behaviors; conditions: earlier work, WO/2020/168068; cited from earlier work
PAC1 receptor [5] = target: T1, PAC1 receptor; test: Inhibition of 20 nM PACAP-stimulated ERK activation in stable PAC1 receptor HEK cells (Western blot); assay type: cell-based; parameters: expressed in transfected cells; conditions: for efficacy and potency in blocking PACAP/PAC1 receptor-stimulated ERK activation, in words: stable human HEK PAC1 receptor cell line, FIGS. 1 and 2
PAC1 receptor [6] = target: T1, PAC1 receptor; test: PACAP-induced calcium flux in HEK PAC1R stable cell lines; assay type: cell-based; parameters: expressed in transfected cells; conditions: 20 nM PACAP, FIG. 3A, read-out: calculated IC50, attenuation of PACAP-induced calcium flux
PAC1 receptor [7] = target: T1, PAC1 receptor; test: PAC1 receptor-stimulated adenylyl cyclase cAMP activation; assay type: cell-based
rats = test: Elevated plus maze after bilateral BNST infusion, PACAP-induced anxiety-like responses; assay type: in vivo, rat; conditions: FIG. 3B
Experimental: FIG. 3 depicts that PAC1 receptor antagonist RJB-145 blocks PACAP-induced signaling and anxiety-like behavioral responses. […] 20 μM RJB-145 blocked PACAP-stimulated ERK activation nearly 75%. Data represent mean +/− SEM; n=3−4 wells/group. […] Anxiety ridden rats avoid the open arms of the maze and prefer traveling into the closed arms. […] Data represent mean +/− SEM; n=8-10 animals/group; **, statistically different from vehicle, RJB145 and PACAP+RJB145 at p<0.01.

[8] = 20 nM PACAP, PAC1 receptor HEK cells, FIG. 2, read-out: apparent IC50, inhibition of PACAP-stimulated ERK activation

| Structure (SMILES) | PAC1 receptor internalization (PAC1 receptor [1]) | PACAP-stimulated PAC1 receptor plasma membrane calcium signaling (PAC1 receptor [2]) | PAC1 receptor endosomal ERK signaling (PAC1 receptor [3]) | combination with GCGR antagonist MK-0893 to inhibit PACAP/PAC1 receptor mediated ERK activation (PAC1 receptor [3]) | blocking PACAP-induced anxiety-related behaviors in vivo [4] | IC50 (PAC1 receptor [5]; [8]) | efficacy and potency in blocking PACAP/PAC1 receptor-stimulated ERK activation, in words (PAC1 receptor [5]) | IC50 (PAC1 receptor [6]) | IC50 (PAC1 receptor [5]; 20 nM PACAP, HEK PAC1R stable cell lines, FIG. 3A, read-out: calculated IC50, attenuation of PACAP-induced ERK activation) | block of PACAP-stimulated ERK activation (PAC1 receptor [5]; 20 μM compound, FIG. 3A) | blocking PACAP/PAC1 receptor stimulated ERK activation (Western blot) (PAC1 receptor [5]; 25 μM pretreatment, 20 nM PACAP, FIG. 1) | effect on PAC1 receptor-stimulated adenylyl cyclase cAMP activation (PAC1 receptor [7]) | behavioral effect on elevated plus maze, compound infused alone (rats; 20 μM/0.5 μL bilaterally into BNST of rats, 5 min per trial) | antagonism of PACAP-induced anxiety-like responses (open arm time) on elevated plus maze (rats; PACAP+RJB-145 infused bilaterally into BNST of rats) |
| --- | --- | --- | --- | --- | --- | --- | --- | --- | --- | --- | --- | --- | --- | --- |
| O=C(N/N=C/c1cccc2c1ccn2Cc1cc(F)cc(F)c1)c1ccc(O)c(Cl)c1 [JF-214] | blocked | blocked | blocked | acted synergistically | demonstrated efficacy | 5 to 8 µM |  |  |  |  |  |  |  |  |
| O=C(Nc1ccc(S(=O)(=O)Nc2ccccc2)cc1)c1cc2ccccc2[nH]1 [RJB-88] |  |  |  |  |  | ~25 µM | appeared less potent |  |  |  |  |  |  |  |
| O=C(Nc1ccc(S(=O)(=O)Nc2cc(F)cc(F)c2)cc1)c1cc2ccccc2[nH]1 [RJB-145] |  |  |  |  |  | ~10 µM and 10 µM | shows efficacy and potency | 8.5 µM | 9 µM | ~75% | demonstrate efficacy | without significant effects | no behavioral effects compared to vehicle | completely antagonize the PACAP-induced anxiety-like responses to control vehicle levels |
